The text below walks through data of patent US20240270762A1, “PENICILLIN-BINDING PROTEIN INHIBITORS” (priority 2021, published 2024).

For experiment [1], the system named is E. coli 901C. The experiment in a line: microbe, parasite or virus in culture. Type of experiment: cell-based. The following applies: Escherichia coli, read-out: MIC E. coli 901C.
For experiment [2], the system named is N. gonorrhoeae WHO Q. Put plainly: Liquid broth MIC in Fastidious broth. The conditions noted are these: Neisseria gonorrhoeae, read-out: Minimum Inhibitory Concentration (MIC), N. gonorrhoeae WHO Q.
In experiment [3] the test system is N. gonorrhoeae WHO G. The experiment in a line: Liquid broth MIC in Fastidious broth. The conditions noted are these: Neisseria gonorrhoeae, read-out: Minimum Inhibitory Concentration (MIC), N. gonorrhoeae WHO G.
Experiment [4] relates to N. gonorrhoeae WHO X. Put plainly: Liquid broth MIC in Fastidious broth. The following applies: Neisseria gonorrhoeae, read-out: Minimum Inhibitory Concentration (MIC), N. gonorrhoeae WHO X.
The subject of experiment [5] is P. aeruginosa ATCC 35151. Put plainly: microbe, parasite or virus in culture. Type of experiment: cell-based. The conditions noted are these: Pseudomonas aeruginosa, ATCC35151, read-out: MIC P. aeruginosa ATCC 35151.
For experiment [6], the system named is P. aeruginosa (ΔmexAB-oprM). The experiment in a line: Broth microdilution MIC in CAMHB. Type of experiment: cell-based. The following applies: Pseudomonas aeruginosa; read-out: MIC P. aeruginosa ΔmexAB-oprM. Background: Broth dilution looks for growth in wells or tubes with falling amounts of substance.
Experiment [7] deals with T1, PBP2 from Neisseria gonorrhoeae (FA19) (Neisseria gonorrhoeae, UniProt P08149).
T1 construct: made in house
T1 sequence (P08149 whole entry): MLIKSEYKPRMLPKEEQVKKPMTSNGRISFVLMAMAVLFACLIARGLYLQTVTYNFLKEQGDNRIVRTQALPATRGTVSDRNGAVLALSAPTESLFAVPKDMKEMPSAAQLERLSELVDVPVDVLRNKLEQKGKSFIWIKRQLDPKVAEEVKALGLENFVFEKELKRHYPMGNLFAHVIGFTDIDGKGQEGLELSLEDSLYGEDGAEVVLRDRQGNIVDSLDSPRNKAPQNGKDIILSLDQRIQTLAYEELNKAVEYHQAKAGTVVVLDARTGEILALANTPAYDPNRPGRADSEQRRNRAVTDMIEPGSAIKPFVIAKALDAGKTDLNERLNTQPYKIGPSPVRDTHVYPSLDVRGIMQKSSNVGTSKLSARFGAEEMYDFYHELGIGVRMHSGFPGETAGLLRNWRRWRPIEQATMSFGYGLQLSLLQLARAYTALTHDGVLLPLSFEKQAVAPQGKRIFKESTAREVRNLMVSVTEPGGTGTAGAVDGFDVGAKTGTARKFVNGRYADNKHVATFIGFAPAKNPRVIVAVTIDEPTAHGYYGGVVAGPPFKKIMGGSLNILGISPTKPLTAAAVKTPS
Put plainly: Bocillin-FL fluorescence polarization competition binding, N. gonorrhoeae PBP2. The conditions noted are these: fluorescence polarization competition binding assay using Bocillin-FL, read-out: N. gonorrhoeae PBP2 Potency. In short, it runs like this: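 Fluorescence polarization competition with 0.1 μM Bocillin-FL (fluorescent penicillin V) against 0.25 μM N. gonorrhoeae FA19 PBP2 in 50 mM Hepes pH 8.0, 300 mM NaCl, 10% glycerol. Boronic acid inhibitors were preincubated with PBP, then Bocillin-FL was added and FP read (490/520 nm) up to 60 min. EC50 is the concentration halving PBP-bound Bocillin-FL.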
Background: In fluorescence polarisation assays a small probe gives low polarisation when free and higher when bound to something large.

For experiment [8], the system named is A. baumannii ATCC 19606. The experiment in a line: microbe, parasite or virus in culture. Type of experiment: cell-based. The conditions noted are these: Acinetobacter baumannii, ATCC19606, read-out: MIC, A. baumannii ATCC 19606.
Experiment [9] concerns K. pneumoniae SI-117. Put plainly: microbe, parasite or virus in culture. Type of experiment: cell-based. The conditions noted are these: Klebsiella pneumoniae, SI117, read-out: MIC K. pneumoniae SI-117.
Experiment [10] concerns N. gonorrhoeae CDC-0197. Put plainly: Liquid broth MIC in Fastidious broth. The following applies: Neisseria gonorrhoeae, CDC0197, read-out: Minimum Inhibitory Concentration (MIC), N. gonorrhoeae CDC-0197.
In experiment [11] the test system is N. gonorrhoeae WHO L. Put plainly: Liquid broth MIC in Fastidious broth. The conditions noted are these: Neisseria gonorrhoeae, read-out: Minimum Inhibitory Concentration (MIC), N. gonorrhoeae WHO L.
Experiment [12] relates to E. coli ATCC 25922. The experiment in a line: microbe, parasite or virus in culture. Type of experiment: cell-based. The following applies: Escherichia coli, ATCC25922, read-out: MIC E. coli 25922.
In experiment [13] the test system is N. gonorrhoeae WHO K. Put plainly: Liquid broth MIC in Fastidious broth. The conditions noted are these: Neisseria gonorrhoeae, read-out: Minimum Inhibitory Concentration (MIC), N. gonorrhoeae WHO K.

Molecules are shown by their SMILES. Values after ≈ are worked out from the molar mass of the structure shown.

Take `N#Cc1cccc(C(=O)N[C@@H](C(=O)N[C@H]2Cc3cccc(C(=O)O)c3OB2O)c2ccc(P(=O)(O)O)cc2)n1` [Example 180, (R)-3-((R)-2-(6-cyanopicolinamido)-2-(4-phosphonophenyl)acetamido)-2-hydroxy-3,4-dihydro-2H-benzo[e][1,2]oxaborinine-8-carboxylic acid]: the MIC in experiment [1] is less than 1 µg/mL; in [2], 1 to 2 µg/mL (≈ 1.82 to 3.63 µM); in experiment [3], less than 1 µg/mL; in experiment [4] it was 4 to 8 µg/mL (≈ 7.27 to 14.5 µM); in [5] it was 2 to 4 µg/mL (≈ 3.63 to 7.27 µM); in experiment [6] it was 32 to 64 µg/mL (≈ 58.2 to 116 µM). Moreover, the MIC in [8] is greater than 128 µg/mL; in experiment [9], greater than 128 µg/mL; in experiment [10] it was less than 1 µg/mL; in experiment [11] it was 4 to 8 µg/mL (≈ 7.27 to 14.5 µM); in experiment [12] it was greater than 128 µg/mL; in [13] it was 1 to 2 µg/mL (≈ 1.82 to 3.63 µM). Moreover, the EC50 in [7] was less than 10 µM.

Take `CCN1CCN(C(=O)NC(C(=O)N[C@H]2Cc3cccc(C(=O)O)c3OB2O)c2c(F)cc(P(=O)(O)O)cc2F)C(=O)C1=O` (stereo partly drawn) [Example 25, (3R)-3-(2-(2,6-difluoro-4-phosphonophenyl)-2-(4-ethyl-2,3-dioxopiperazine-1-carboxamido)acetamido)-2-hydroxy-3,4-dihydro-2H-benzo[e][1,2]oxaborinine-8-carboxylic acid]: the MIC in [1] is less than 1 µg/mL; in experiment [2], 1 to 2 µg/mL (≈ 1.6 to 3.2 µM); in experiment [3], less than 1 µg/mL; in experiment [4], 4 to 8 µg/mL (≈ 6.41 to 12.8 µM); in experiment [5], 2 to 4 µg/mL (≈ 3.2 to 6.41 µM); in experiment [6], 32 to 64 µg/mL (≈ 51.3 to 103 µM). The MIC was greater than 128 µg/mL in experiment [8]; greater than 128 µg/mL in [9]; less than 1 µg/mL in experiment [10]; 1 to 2 µg/mL (≈ 1.6 to 3.2 µM) in experiment [11]; greater than 128 µg/mL in experiment [12]; 1 to 2 µg/mL (≈ 1.6 to 3.2 µM) in experiment [13]. Also, in experiment [7], the EC50 is less than 10 µM.
